Data taken from patent US9243281B2, “Neuroprotective chemicals and methods for identifying and using same” (Board of Regents of The University of Texas System, priority 2013, dated 2016).

What was measured:
p70 (NAMPT) = biological target: T1, p70 (NAMPT) (Homo sapiens, UniProt P43490); assay: binding competition for photo-crosslinking of P7C3-S326 to p70 in H2122 cells; conditions: 0.3 μM P7C3-S326 plus 5 μM competitor, p70 band intensity, P7C3-S326 alone compared with plus competitor, vehicle 1.0
T1 construct: endogenous in cells; host or cells: H2122 lung cancer cells
T1 sequence (P43490 whole entry): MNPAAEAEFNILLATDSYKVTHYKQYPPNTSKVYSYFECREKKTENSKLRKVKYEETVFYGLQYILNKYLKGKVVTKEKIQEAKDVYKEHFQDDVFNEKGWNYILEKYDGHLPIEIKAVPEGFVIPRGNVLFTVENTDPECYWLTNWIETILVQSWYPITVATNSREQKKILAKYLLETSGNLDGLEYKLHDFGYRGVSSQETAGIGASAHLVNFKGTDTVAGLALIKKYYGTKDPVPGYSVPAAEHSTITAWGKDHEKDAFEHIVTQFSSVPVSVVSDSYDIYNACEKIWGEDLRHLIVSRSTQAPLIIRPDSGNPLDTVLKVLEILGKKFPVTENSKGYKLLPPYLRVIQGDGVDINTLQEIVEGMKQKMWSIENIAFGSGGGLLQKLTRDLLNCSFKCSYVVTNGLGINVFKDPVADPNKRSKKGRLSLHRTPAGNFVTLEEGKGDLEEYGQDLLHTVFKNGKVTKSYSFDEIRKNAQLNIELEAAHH
Description: Cultured cells were co-exposed to P7C3-S326 (0.3 uM) and the individual P7C3 variants (5 uM), exposed to UV light, lysed, clicked to a fluorescent dye and run on SDS gels (FIG. 11).
P7C3-S326 was diluted to 0.3 μM in culture medium to treat H2122 cells. After incubation at 37° C. for 2 hours, H2122 cells were irradiated for 15 minutes under 306 nm ultraviolet light in a Stratalinker 2400 (Stratagene). Cells were then harvested by dissolving in 1% SDS lysis buffer 50 mM HEPES, pH 8.0, 2 mM MgCl2, 10 mM KCl, 1% SDS, 50 units/ml of Benzonase (Sigma), supplemented with Sigmafast protease inhibitor (Sigma).
The reaction was incubated at room temperature with constant agitation at 1,000 rpm on a thermomixer (Eppendorf) for 1 hour. Samples were then mixed with SDS sample loading buffer and loaded on an 8% SDS-PAGE gel, separated, and imaged using a Typhoon imager (filter settings: excitation 533 nm, emission 555 nm, and high sensitivity).
H2122 cells were incubated with the P7C3-S326 (0.3 μM) in the absence or presence of P7C3 analogs for 2 hours following by UV crosslinking. […] The samples were run on SDS-PAGE gels scanned using a Typhoon Imager. The p70 band intensity was analyzed and quantified by Image J, and the relative intensity in each assay was normalized to that of the DMSO control.

[1] = tested on: hippocampal neurogenesis (Dentate Gyrus); assay: in vivo neurogenesis assay (BrdU+ cells in dentate gyrus); set-up: species or system mice; conditions: living mice; vehicle (DMSO) 7.3
Text: The screen was simple in concept. With help from chemists in the Department of Biochemistry at UTSWMC, we selected 1,000 druglike chemicals from the 250,000 compounds in our high throughput screening center. The compounds were selected to preserve representative chemical diversity of the entire library. They were further selected to enhance the representation of chiral molecules, and to avoid untoward chemical properties such as reactive moieties. The 1,000 molecules were randomly pooled into groups of ten, and each pool was administered directly into the left ventricle of two adult mice. Intracranial delivery was facilitated by stereotactic positioning of a canula fed directly by an Alzet mini-pump containing the mixture of ten chemicals. The drug mixture was administered over a week-long period at concentrations anticipated to deliver mid-nanomolar levels of the ten test compounds. Daily injections of the thymidine analog, bromodeoxyuridine (BrdU), were coadministered in order to monitor the formation of new hippocampal nerve cells. Following compound administration, animals were sacrificed such that brain tissue could be recovered, sectioned and stained with antibodies to BrdU. […]

NC(=O)c1ccc2c(c1)c1cc(Br)ccc1n2CC(=O)O [S238]
Binding competition (p70 (NAMPT)): 0.9
Neurogenesis # BrdU+ Cells (X10E06)/mm3 Dentate Gyrus [1]: 9.4 (X10E06)/mm3

CCOC(=O)C1=NCc2c(c3ccccc3n2S(=O)(=O)c2ccc(C)cc2)N1 [S247]
Binding competition (p70 (NAMPT)): 1.6
Neurogenesis # BrdU+ Cells (X10E06)/mm3 Dentate Gyrus [1]: 15.6 (X10E06)/mm3

N#CN1CCc2c(c3cc(Br)ccc3n2CC(O)COc2ccccc2)C1 (centres unmarked) [S107]
Binding competition (p70 (NAMPT)): 3.5
Neurogenesis # BrdU+ Cells (X10E06)/mm3 Dentate Gyrus [1]: 7.3 (X10E06)/mm3

Nc1cccc(SCC(O)Cn2c3ccc(Br)cc3c3cc(Br)ccc32)c1 (centres unmarked) [S95]
Binding competition (p70 (NAMPT)): 4.6
Neurogenesis # BrdU+ Cells (X10E06)/mm3 Dentate Gyrus [1]: 8.6 (X10E06)/mm3

OC(CNC1CCCCC1)Cn1c2ccc(Br)cc2c2cc(Br)ccc21 (centres unmarked) [S109]
Binding competition (p70 (NAMPT)): 1.2
Neurogenesis # BrdU+ Cells (X10E06)/mm3 Dentate Gyrus [1]: 9.4 (X10E06)/mm3

O=C(O)c1ccc2c(c1)c1cc(Br)ccc1n2CC(O)COc1ccccc1 (centres unmarked) [S153]
Binding competition (p70 (NAMPT)): 1.4
Neurogenesis # BrdU+ Cells (X10E06)/mm3 Dentate Gyrus [1]: 10.7 (X10E06)/mm3

Brc1ccc2[nH]c3ccccc3c2c1 [S236]
Binding competition (p70 (NAMPT)): 1.7
Neurogenesis # BrdU+ Cells (X10E06)/mm3 Dentate Gyrus [1]: 12.3 (X10E06)/mm3

O=C(COc1ccc(NCC(F)Cn2c3ccc(Br)cc3c3cc(Br)ccc32)cc1)NCCO (centres unmarked) [S71]
Binding competition (p70 (NAMPT)): 3.1
Neurogenesis # BrdU+ Cells (X10E06)/mm3 Dentate Gyrus [1]: 7.2 (X10E06)/mm3

CC(O)(COc1ccccc1)Cn1c2ccc(C#N)cc2c2cc(C#N)ccc21 (centres unmarked) [S177]
Binding competition (p70 (NAMPT)): 4.3
Neurogenesis # BrdU+ Cells (X10E06)/mm3 Dentate Gyrus [1]: 13.9 (X10E06)/mm3

NC(Cc1c[nH]c2ccc(Br)cc12)C(=O)O (centres unmarked) [S207]
Binding competition (p70 (NAMPT)): 1.1
Neurogenesis # BrdU+ Cells (X10E06)/mm3 Dentate Gyrus [1]: 16.2 (X10E06)/mm3

CNCCC(Oc1ccc(C(F)(F)F)cc1)c1ccccc1 (centres unmarked) [S122, Prozac, reference compound]
Binding competition (p70 (NAMPT)): 1.4
Neurogenesis # BrdU+ Cells (X10E06)/mm3 Dentate Gyrus [1]: 10.0 (X10E06)/mm3

COc1ccc(S(=O)(=O)CC(O)Cn2c3ccc(Br)cc3c3cc(Br)ccc32)cc1 (centres unmarked) [S84]
Binding competition (p70 (NAMPT)): 1.2
Neurogenesis # BrdU+ Cells (X10E06)/mm3 Dentate Gyrus [1]: 12.8 (X10E06)/mm3

OC(COc1ccccc1)Cn1c2ccc(Br)cc2c2ncccc21 (centres unmarked) [S194]
Binding competition (p70 (NAMPT)): 5.1
Neurogenesis # BrdU+ Cells (X10E06)/mm3 Dentate Gyrus [1]: 8.1 (X10E06)/mm3

OC(Cn1ccc2ccccc21)Cn1c2ccc(Br)cc2c2cc(Br)ccc21 (centres unmarked) [S22]
Binding competition (p70 (NAMPT)): 2.7
Neurogenesis # BrdU+ Cells (X10E06)/mm3 Dentate Gyrus [1]: 6.7 (X10E06)/mm3

N#Cc1ccc2c(c1)c1ccccc1n2CC(O)COc1ccccc1 (centres unmarked) [S138]
Binding competition (p70 (NAMPT)): 6.5
Neurogenesis # BrdU+ Cells (X10E06)/mm3 Dentate Gyrus [1]: 10.4 (X10E06)/mm3

OC(COc1ccccc1)CN1c2ccccc2CCc2ccccc21 (centres unmarked) [S135]
Binding competition (p70 (NAMPT)): 3.4
Neurogenesis # BrdU+ Cells (X10E06)/mm3 Dentate Gyrus [1]: 7.1 (X10E06)/mm3

O=S(=O)(C[C@@H](O)Cn1c2ccc(Br)cc2c2cc(Br)ccc21)c1ccccc1 [S50]
Binding competition (p70 (NAMPT)): 3.8
Neurogenesis # BrdU+ Cells (X10E06)/mm3 Dentate Gyrus [1]: 16.2 (X10E06)/mm3

O=C(O)c1ccc2[nH]c3ccc(Br)cc3c2c1 [S225]
Binding competition (p70 (NAMPT)): 2.2
Neurogenesis # BrdU+ Cells (X10E06)/mm3 Dentate Gyrus [1]: 15.2 (X10E06)/mm3

COc1cccc(NC(=O)C(O)Cn2c3ccc(Br)cc3c3cc(Br)ccc32)c1 (centres unmarked) [S31]
Binding competition (p70 (NAMPT)): 6.2
Neurogenesis # BrdU+ Cells (X10E06)/mm3 Dentate Gyrus [1]: 10.4 (X10E06)/mm3

O=C(O)CN1c2ccccc2CCc2ccccc21 [S210]
Binding competition (p70 (NAMPT)): 1.1
Neurogenesis # BrdU+ Cells (X10E06)/mm3 Dentate Gyrus [1]: 10.7 (X10E06)/mm3

COc1cccc(NC[C@H](O)Cn2c3ccc(Br)cc3c3cc(Br)ccc32)c1 [S16]
Binding competition (p70 (NAMPT)): 3.1
Neurogenesis # BrdU+ Cells (X10E06)/mm3 Dentate Gyrus [1]: 9.2 (X10E06)/mm3

CN[C@H]1CC[C@@H](c2ccc(Cl)c(Cl)c2)c2ccccc21 [S123, Zoloft, reference compound]
Binding competition (p70 (NAMPT)): 1.5
Neurogenesis # BrdU+ Cells (X10E06)/mm3 Dentate Gyrus [1]: 9.4 (X10E06)/mm3

CC(C)NCC(O)CN1c2ccccc2CCc2ccccc21 (centres unmarked) [S144]
Binding competition (p70 (NAMPT)): 1.4
Neurogenesis # BrdU+ Cells (X10E06)/mm3 Dentate Gyrus [1]: 9.1 (X10E06)/mm3

O=S(=O)(CC(O)Cn1c2ccc(Cl)cc2c2cc(Cl)ccc21)c1ccccc1 (centres unmarked) [S52]
Binding competition (p70 (NAMPT)): 4.3
Neurogenesis # BrdU+ Cells (X10E06)/mm3 Dentate Gyrus [1]: 10.8 (X10E06)/mm3

OC(COc1ccccc1)Cn1c2ccccc2c2cc(Br)ccc21 (centres unmarked) [S150]
Binding competition (p70 (NAMPT)): 4.1
Neurogenesis # BrdU+ Cells (X10E06)/mm3 Dentate Gyrus [1]: 8.4 (X10E06)/mm3

OC(COc1ccccc1)Cn1c2ccc(Br)cc2c2cc(Br)ccc21 (centres unmarked) [S39]
Binding competition (p70 (NAMPT)): 2.6
Neurogenesis # BrdU+ Cells (X10E06)/mm3 Dentate Gyrus [1]: 14.8 (X10E06)/mm3

CNCC(F)CN1c2ccccc2CCc2ccccc21 (centres unmarked) [S152]
Binding competition (p70 (NAMPT)): 1.6
Neurogenesis # BrdU+ Cells (X10E06)/mm3 Dentate Gyrus [1]: 13.4 (X10E06)/mm3

O[C@@H](COc1ccccc1)Cn1c2ccc(Br)cc2c2cc(Br)ccc21 [S40]
Binding competition (p70 (NAMPT)): 2.8
Neurogenesis # BrdU+ Cells (X10E06)/mm3 Dentate Gyrus [1]: 8.1 (X10E06)/mm3

N#Cc1cc2c3cc(Br)ccc3n(CC(O)COc3ccccc3)c2cn1 (centres unmarked) [S192]
Binding competition (p70 (NAMPT)): 4.2
Neurogenesis # BrdU+ Cells (X10E06)/mm3 Dentate Gyrus [1]: 10.5 (X10E06)/mm3

CN(C)C(CF)CN1c2ccccc2CCc2ccccc21 (centres unmarked) [S149]
Binding competition (p70 (NAMPT)): 1.2
Neurogenesis # BrdU+ Cells (X10E06)/mm3 Dentate Gyrus [1]: 11.6 (X10E06)/mm3

Cc1cc(C)n(CC(O)Cn2c3ccc(Br)cc3c3cc(Br)ccc32)n1 (centres unmarked) [S25]
Binding competition (p70 (NAMPT)): 1.4
Neurogenesis # BrdU+ Cells (X10E06)/mm3 Dentate Gyrus [1]: 7.0 (X10E06)/mm3

OC(CCNc1ccccc1)Cn1c2ccc(Br)cc2c2cc(Br)ccc21 (centres unmarked) [S32]
Binding competition (p70 (NAMPT)): 2.7
Neurogenesis # BrdU+ Cells (X10E06)/mm3 Dentate Gyrus [1]: 13.8 (X10E06)/mm3

CC(=O)NCC(F)Cn1c2ccc(Br)cc2c2cc(Br)ccc21 (centres unmarked) [S218]
Binding competition (p70 (NAMPT)): 3.2
Neurogenesis # BrdU+ Cells (X10E06)/mm3 Dentate Gyrus [1]: 9.5 (X10E06)/mm3

OC(CNc1ccccc1)CN(c1ccc(Br)cc1)c1ccc(Br)cc1 (centres unmarked) [S72]
Binding competition (p70 (NAMPT)): 1.4
Neurogenesis # BrdU+ Cells (X10E06)/mm3 Dentate Gyrus [1]: 11.7 (X10E06)/mm3

OC(COc1ccccc1)Cn1c2ccc(Br)cc2c2cc(Br)cnc21 (centres unmarked) [S187]
Binding competition (p70 (NAMPT)): 2.9
Neurogenesis # BrdU+ Cells (X10E06)/mm3 Dentate Gyrus [1]: 12.6 (X10E06)/mm3

FC(COc1ccccc1)Cn1c2ccc(Br)cc2c2cc(Br)ccc21 (centres unmarked) [S42]
Binding competition (p70 (NAMPT)): 1.7
Neurogenesis # BrdU+ Cells (X10E06)/mm3 Dentate Gyrus [1]: 11.7 (X10E06)/mm3

O=S(=O)(CC(O)Cn1c2ccc(Br)cc2c2cc(Br)ccc21)c1cccc(O)c1 (centres unmarked) [S93]
Binding competition (p70 (NAMPT)): 1.4
Neurogenesis # BrdU+ Cells (X10E06)/mm3 Dentate Gyrus [1]: 11.9 (X10E06)/mm3

O=C(COc1cccc(SCC(O)Cn2c3ccc(Br)cc3c3cc(Br)ccc32)c1)NCc1ccccc1 (centres unmarked) [S98]
Binding competition (p70 (NAMPT)): 1.1
Neurogenesis # BrdU+ Cells (X10E06)/mm3 Dentate Gyrus [1]: 6.9 (X10E06)/mm3

COc1ccc(NCC(F)Cn2c3ccc(Br)cc3c3cc(Br)ccc32)cc1 (centres unmarked) [S60]
Binding competition (p70 (NAMPT)): 1.4
Neurogenesis # BrdU+ Cells (X10E06)/mm3 Dentate Gyrus [1]: 12.6 (X10E06)/mm3

NCC(O)Cn1c2ccc(Br)cc2c2cc(Br)ccc21 (centres unmarked) [S20]
Binding competition (p70 (NAMPT)): 1.3
Neurogenesis # BrdU+ Cells (X10E06)/mm3 Dentate Gyrus [1]: 12.7 (X10E06)/mm3

N#Cc1ccc2c(c1)c1cc(C#N)ccc1n2CC(O)COc1ccccc1 (centres unmarked) [S111]
Binding competition (p70 (NAMPT)): 4.1
Neurogenesis # BrdU+ Cells (X10E06)/mm3 Dentate Gyrus [1]: 12.3 (X10E06)/mm3

OC(CSc1ccccc1)Cn1c2ccc(Br)cc2c2cc(Br)ccc21 (centres unmarked) [S7]
Binding competition (p70 (NAMPT)): 2.0
Neurogenesis # BrdU+ Cells (X10E06)/mm3 Dentate Gyrus [1]: 15.5 (X10E06)/mm3

COc1cccc(NCC(O)Cn2c3ccc(Cl)cc3c3cc(Cl)ccc32)c1 (centres unmarked) [S15]
Binding competition (p70 (NAMPT)): 5.3
Neurogenesis # BrdU+ Cells (X10E06)/mm3 Dentate Gyrus [1]: 7.6 (X10E06)/mm3
